Assay: mn = molality of the nth substance listed, in mol/kg
Details: 101 kPa, Liquid

C1COCCOCCOCCOCCOCCO1 [1,4,7,10,13,16-hexaoxacyclooctadecane] + O
Details | mass density, 293.15 K [kg/m3] | mass density, 295.15 K [kg/m3] | mass density, 297.15 K [kg/m3] | mass density, 298.15 K [kg/m3] | mass density, 299.15 K [kg/m3] | mass density, 301.15 K [kg/m3] | mass density, 303.15 K [kg/m3] | mass density, 308.15 K [kg/m3] | mass density, 313.15 K [kg/m3] | speed of sound, 298.15 K [m/s]
m1 = 0.0001 | – | – | – | 997.047 | – | – | – | – | – | –
m1 = 0.09578 | 1002.26 | 1001.8 | 1001.29 | 1000.98 | 1000.71 | 1000.12 | 999.519 | 997.836 | 995.959 | –
m1 = 0.0958 | – | – | – | 1000.98 | – | – | – | – | – | 1512.5
m1 = 0.1953 | 1006.34 | 1005.85 | 1005.3 | 1004.95 | 1004.66 | 1004.02 | 1003.4 | 1001.65 | 999.701 | 1527.2
m1 = 0.4197 | 1015.08 | 1014.51 | 1013.88 | 1013.44 | 1013.12 | 1012.39 | 1011.69 | 1009.76 | 1007.65 | 1557.3
m1 = 0.5091 | 1018.38 | 1017.79 | 1017.12 | 1016.66 | 1016.33 | 1015.56 | 1014.82 | 1012.82 | 1010.65 | 1568.3
m1 = 0.6046 | 1021.8 | 1021.17 | 1020.48 | 1019.99 | 1019.64 | 1018.84 | 1018.06 | 1015.99 | 1013.74 | 1579.6
m1 = 0.7192 | 1025.77 | 1025.1 | 1024.37 | 1023.86 | 1023.49 | 1022.65 | 1021.82 | 1019.66 | 1017.33 | 1592.7
m1 = 0.8244 | 1029.28 | 1028.57 | 1027.8 | 1027.28 | 1026.89 | 1026.01 | 1025.14 | 1022.9 | 1020.49 | 1604.2
m1 = 0.9881 | 1034.49 | 1033.73 | 1032.91 | 1032.37 | 1031.95 | 1031.02 | 1030.1 | 1027.73 | 1025.21 | 1621.4
m1 = 1.13 | 1038.8 | 1037.98 | 1037.12 | 1036.57 | 1036.13 | 1035.15 | 1034.18 | 1031.7 | 1029.09 | 1635.5
m1 = 1.296 | 1043.56 | 1042.68 | 1041.78 | 1041.22 | 1040.75 | 1039.72 | 1038.71 | 1036.12 | 1033.4 | 1651.2
m1 = 1.484 | 1048.63 | 1047.68 | 1046.73 | 1046.16 | 1045.66 | 1044.59 | 1043.54 | 1040.81 | 1037.98 | 1667.6
m1 = 1.643 | 1052.69 | 1051.69 | 1050.69 | 1050.12 | 1049.6 | 1048.48 | 1047.4 | 1044.56 | 1041.64 | 1680.3
m1 = 2.189 | 1064.99 | 1063.83 | 1062.7 | 1062.06 | 1061.5 | 1060.24 | 1059.05 | 1055.88 | 1052.65 | 1714.6
m1 = 2.803 | 1076.32 | 1075.11 | 1073.77 | 1073.02 | 1072.41 | 1071.01 | 1069.62 | 1066.1 | 1062.5 | 1742.3
